The results in this text go back to patent publication US9598434B2, “Benzazepine compound” (Astellas Pharma Inc., priority 2010, dated 2017).

In one data set the target is T1, human 5-HT2C receptor (Homo sapiens, UniProt P28335).
T1 construct: expressed in transfected cells
T1 sequence (P28335 33-458): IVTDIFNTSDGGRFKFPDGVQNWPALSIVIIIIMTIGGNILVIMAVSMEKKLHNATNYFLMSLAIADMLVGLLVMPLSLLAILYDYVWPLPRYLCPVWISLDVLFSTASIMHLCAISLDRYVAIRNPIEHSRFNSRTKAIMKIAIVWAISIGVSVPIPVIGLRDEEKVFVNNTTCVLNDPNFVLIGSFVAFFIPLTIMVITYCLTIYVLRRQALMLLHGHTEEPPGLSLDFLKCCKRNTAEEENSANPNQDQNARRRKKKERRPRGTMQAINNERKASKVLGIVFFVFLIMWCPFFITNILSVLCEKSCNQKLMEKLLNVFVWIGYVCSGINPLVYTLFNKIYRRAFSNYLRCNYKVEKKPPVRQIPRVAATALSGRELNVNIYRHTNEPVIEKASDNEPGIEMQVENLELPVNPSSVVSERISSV
Nature of the data set: Evaluation of 5-HT2C receptor agonist activity (intracellular calcium increase, FLIPR, CHO cells stably expressing the receptor). Format: cell-based. The following applies: for Emax: read-out: 5-HT2C agonist activity Emax. On the procedure:
The agonist activity of the compound of the formula (I) on the 5-HT2C receptor was confirmed by the method shown below.
The human 5-HT2C receptor agonist activity was evaluated by measuring the increase of the ligand-dependent intracellular calcium concentration. CHO cells which stably expressing a human 5-HT2C receptor were used. The receptor-expressing cells were prepared by transfecting the genes of the human 5-HT2C receptor (Accession numbers: AF498983 (5-HT2C)) into CHO cells (dihydrofolic acid-deficient strain, DS Pharma Biomedical Co., Ltd.)) using a pEF-BOS vector (Nucleic Acids Research, vol. 18, No. 17). After transcription, the 5-HT2C is known to be subjected to RNA editing to cause differences in three kinds of amino acids, resulting in fourteen receptor isoforms. Among them, cells stably expressing an INI type of 5-HT2C receptor which had not been subjected to editing were used. Cells used for evaluation were cultured in a 10% fetal bovine serum (FBS)-containing medium (trade name: α-MEM, Invitrogen) at 37° C. and 5% carbon dioxide. On the day before the evaluation, the cells were suspended in a serum-free medium (trade name: CD-CHO, Invitrogen) containing 8 mM L-glutamine (trade name: L-glutamine 200 mM, Invitrogen, added to the medium at a final concentration of 8 mM) and dispensed into a 96-well poly-D-lysine-coated plate (trade name: Biocoat PDL96W Black/Clear, Japan Becton, Dickinson and Company)) at 4×10^4 cells/well and cultured at 37° C. and 5% carbon dioxide overnight. A solution including a washing solution (mixture of Hank's Balanced Salt Solution (HBSS)-sodium hydroxide (NaOH), 20 mM 2-[4-(2-hydroxyethyl)-1-piperazinyl]ethanesulfonic acid (HEPES)-sodium hydroxide (NaOH), 2.5 mM probenecid, and 0.1% bovine serum albumin (BSA)), and a 4 μM fluorescent reagent (trade name: Fluo4-AM, Dojindo Co., Ltd.) was used as a loading buffer and the medium of the 96-well plate which had been cultured overnight was replaced with a loading buffer. After leaving to stand (with light-shielding) at room temperature for 3 hours, the cells were washed with a plate washer (trade name: ELx405, BioTek Instruments, Inc.) in which a washing solution had been set up. The plates of the washed cells were set up in a system for measuring a calcium (Ca) concentration in a cell (trade name: FLIPR, Molecular Devices, Inc.). In this device, a test compound that had been dissolved in dimethyl sulfoxide and diluted in the washing solution at a predetermined concentration was added and set up to measure a change in the Ca concentrations in a cell. The difference between a maximum value and a minimum value in the change of the intracellular Ca concentration was determined and kept as measurement data.
Taking the maximum reaction of the 5-HT (agonist action with addition of 5-HT 10 μM) as 100% and the reaction of a solvent alone as 0%, the efficacy (Emax (%)) and potency (EC50 (nM)) of the present invention compound to the maximum reaction of the 5-HT were calculated with a logistic regression method.

Where [1] appears, read: CHO cells stably expressing INI type human 5-HT2C receptor, intracellular Ca increase, logistic regression, read-out: 5-HT2C agonist activity EC50.
Where [2] appears, read: maximum reaction of 5-HT (10 μM) taken as 100%, solvent alone as 0%, CHO cells expressing INI type human 5-HT2C receptor.

pEC50: −log10 of the molar value. Where two headings read alike, the source gives them in different places.

One may read the melting point as the temperature, or range, at which the solid turns liquid. Turning to `CCCN1C(=O)CCc2cc3c(cc21)CCNCC3.Cl`, the melting point was 125 to 129 °C.
`O=C(O)CCC(=O)O.O=C1COc2cc3c(cc2N1Cc1ccccc1Cl)CCNCC3`: the melting point was 119 to 127 °C.
`O=C(O)CCC(=O)O.O=C(OCCc1ccccc1F)N1CCOc2cc3c(cc21)CCNCC3`: the melting point lay in the range of 186 to 187 °C.
Same read-out and setting: as for `Cl.FC(F)(F)CN1CCOc2cc3c(cc21)CCNCC3`, the figure is 221 to 222 °C; as for `CCOC(=O)N1CCOc2c1cc1c(c2Cl)CCNCC1.O=C(O)CCC(=O)O`, 145 to 147 °C.
`Clc1ccccc1CN1CCOc2cc3c(c(C4CC4)c21)CCNCC3.O=C(O)CCC(=O)O`: the melting point was in the range of 106 to 109 °C.
`CC1(C)CCc2cc3c(cc2N1)CCNCC3` came in with a melting point of 270 to 273 °C.
`COCC(CN1CCOc2cc3c(c(C4CC4)c21)CCNCC3)Oc1ccc(F)cc1F.O=C(O)/C=C/C(=O)O` (stereo not shown) returned a melting point of 150 to 151 °C.
In turn, `CCNC(=O)N1CCCc2cc3c(cc21)CCNCC3.O=C(O)/C=C/C(=O)O` yielded a melting point of 174 to 176 °C.
The same measure, in the same setting: as for `O=C1CCc2cc3c(c(Cl)c2N1)CCNCC3` [Example 1, 11-chloro-1,3,4,6,7,8,9,10-octahydro-2H-azepino[4,5-g]quinolin-2-one], the figure is 165 to 167 °C.
Broadly, the pEC50 is the EC50 on a negative log10 scale, so that one unit is a factor of ten. A word on the Emax: it is the size of the effect at its maximum, as opposed to the concentration needed. For `CC(C)CN1CCCc2cc3c(c(Cl)c21)CCNCC3.O=C(O)/C=C/C(=O)O` [Example 2, 11-chloro-1-isobutyl-2,3,4,6,7,8,9,10-octahydro-1H-azepino[4,5-g]quinoline monofumarate], the melting point lay in the range of 159 to 163 °C. For the same compound, at human 5-HT2C receptor (setting [1]), the negative logarithm of the EC50 (pEC50) is 9.19. Further, at human 5-HT2C receptor (CHO), the maximum response (Emax) is 99%.
`CCN1CCCc2cc3c(c(Cl)c21)CCNCC3.Cl` [Example 16] yielded a melting point of 221 to 223 °C. Also, the negative logarithm of the EC50 (pEC50) at human 5-HT2C receptor was 8.82. The Emax at human 5-HT2C receptor (CHO) was 109%.
As for `CC(C)C(=O)N1CCCc2cc3c(c(Cl)c21)CCNCC3.Cl` [Example 21], the melting point fell in the range of 245 to 249 °C. The negative logarithm of the EC50 (pEC50) on human 5-HT2C receptor (setting [1]) was 9.09. Besides, the maximal response (Emax) on human 5-HT2C receptor (CHO) was 101%.
`CC(=O)N1CCCc2cc3c(cc21)CCNCC3.O=C(O)/C=C/C(=O)O` [Example 33] displayed a melting point of 159 to 162 °C. For the same compound, the negative logarithm of the EC50 (pEC50) at human 5-HT2C receptor (setting [1]) was 7.48. The maximum response (Emax) on human 5-HT2C receptor (CHO) stood at 94%.
With `CN1CCOc2cc3c(c(Br)c21)CCNCC3.O=C(O)/C=C/C(=O)O` [Example 35], the melting point lay within 200 to 204 °C. The pEC50 at human 5-HT2C receptor was 9.38. The Emax at human 5-HT2C receptor (CHO) amounted to 100%.
On to `c1c2c(c(C3CC3)c3c1OCCN3)CCNCC2` [Example 36], for which the melting point lay in the range of 193 to 197 °C. For the same compound, at human 5-HT2C receptor (setting [1]), the pEC50 was 7.92. Moreover, on human 5-HT2C receptor (setting [2]), the Emax came out at 97%.
Consider `Clc1c2c(cc3c1N(CC1CCC1)CCC3)CCNCC2` [Example 42], for which the melting point lay within 141 to 143 °C. Further, the negative-log EC50 (pEC50) on human 5-HT2C receptor is 8.72. Also, the Emax on human 5-HT2C receptor (CHO) came to 97%.
Regarding `Clc1c2c(cc3c1N(CC1CCCC1)CCC3)CCNCC2` [Example 45], the melting point was in the range of 151 to 153 °C. For the same compound, the negative logarithm of the EC50 (pEC50) on human 5-HT2C receptor is 8.41. In addition, the Emax on human 5-HT2C receptor (CHO) amounted to 107%.
The like results for `CC1CNc2cc3c(cc2O1)CCNCC3` (stereo not shown) [Example 50] were, in that order, 193 to 194 °C, 7.17 and 98%.
On to `c1c2c(cc3c1OCCN3CC1CC1)CCNCC2` [Example 56], for which the melting point is 179 to 182 °C. Further, the pEC50 on human 5-HT2C receptor (setting [1]) is 8.49. For the same compound, at human 5-HT2C receptor (setting [2]), the Emax came out at 112%.
Regarding `CC(C)CN1CCOc2cc3c(cc21)CCNCC3` [Example 58], the pEC50 on human 5-HT2C receptor (setting [1]) was 8.40. Besides, the Emax on human 5-HT2C receptor (setting [2]) came to 117%.
Regarding `CC(C)OCCN1CCOc2cc3c(cc21)CCNCC3` [Example 76], the pEC50 on human 5-HT2C receptor (setting [1]) is 8.72. For the same compound, the maximum response (Emax) on human 5-HT2C receptor (CHO) stood at 116%.
`COCCN1CCOc2cc3c(c(-c4cccc(C)c4)c21)CCNCC3.O=C(O)/C=C/C(=O)O` [Example 78] displayed a melting point of 173 to 176 °C. On human 5-HT2C receptor (setting [1]), the negative logarithm of the EC50 (pEC50) was 7.44. Further, the Emax on human 5-HT2C receptor (CHO) was 98%.
The like results for `COCCN1CCOc2cc3c(c(C)c21)CCNCC3.O=C(O)/C=C/C(=O)O` [Example 90] were, in that order, 166 to 170 °C, 8.08 and 113%.
The like results for `O=C(O)/C=C/C(=O)O.c1ccc(N2CCOc3cc4c(cc32)CCNCC4)cc1` [Example 92] were, in that order, 220 to 222 °C, 7.10 and 84%.
The compound `CCc1c2c(cc3c1N(CCOC)CCO3)CCNCC2.O=C(O)/C=C/C(=O)O` [Example 98] showed a melting point of 159 to 163 °C. For the same compound, the pEC50 on human 5-HT2C receptor (setting [1]) was 8.36. The Emax at human 5-HT2C receptor (CHO) was found to be 107%.
`COCC1(CN2CCOc3cc4c(c(C5CC5)c32)CCNCC4)CC1` [Example 105] displayed a melting point of 166 to 167 °C. The pEC50 at human 5-HT2C receptor (setting [1]) was 8.10. Moreover, on human 5-HT2C receptor (CHO), the Emax worked out at 111%.
The like results for `CCOC(=O)N1CCCc2cc3c(c(C)c21)CCNCC3.O=C(O)C(=O)O` [Example 108] were, in that order, 185 to 186 °C, 8.23 and 106%.
`CC1(C)CCNc2cc3c(cc21)CCNCC3` [Example 159] displayed a melting point of 288 to 290 °C.
For `COCCN1CCOc2c1cc1c(c2Br)CCNCC1` [Example 176], the melting point lay in the range of 107 to 110 °C.
Same read-out and setting: as for `CCCc1c2c(cc3c1N(C)CCO3)CCNCC2` [Example 225], the figure is 151 to 152 °C; as for `CCc1c2c(cc3c1N(C)CCO3)CCNCC2` [Example 226], 184 to 185 °C; as for `c1c2c(c(C3CC3)c3c1OCCN3C[C@H]1CCCO1)CCNCC2` [Example 227], 156 to 158 °C.
In turn, `COC(C)(C)CN1CCOc2cc3c(c(C4CC4)c21)CCNCC3` [Example 230] yielded a melting point of 155 to 156 °C.
For `COCC(C)(C)CN1CCOc2cc3c(c(C4CC4)c21)CCNCC3` [Example 231], the melting point fell in the range of 141 to 145 °C.
The compound `c1c2c(c(C3CC3)c3c1OCCN3CC1CCOCC1)CCNCC2` [Example 250] displayed a melting point of 153 to 155 °C.
`CC(C)CN1CCOc2cc3c(c(C4CC4)c21)CCNCC3` [Example 262] gave a melting point of 160 to 162 °C.
Compound `CCc1c2c(cc3c1N(CCCF)CCO3)CCNCC2` [Example 264] came in with a melting point of 153 to 154 °C.
Take `COCC(C)CN1CCOc2cc3c(cc21)CCNCC3` (stereo not shown) [Example 318]: the melting point lay in the range of 129 to 132 °C.
